Reference: patent US20250163057A1, “DCN-1 MODULATING COMPOUNDS AND METHODS OF USE THEREOF” (Cellarity, Inc., priority 2023, published 2025)
Like-named read-outs stand apart in the source and are kept apart here.

Experiments:
[1] = test system: fetal hemoglobin gene HBG1; assay: HBG1 Nanostring Assay in CD34+ HSPC erythroid differentiation culture; format: cell-based, human; details: for EC50: HBG1 induction, Day10 of erythroid differentiation; for Nanostring Ymax obs (%): relative to a control compound (C1)
Method: A Nanostring Assay was performed to evaluate the ability of the compounds to induce expression of the fetal hemoglobin gene HBG1 in cells. The data are shown as EC50, with stronger inducers having a lower EC50 value and higher YMax.
Forty eight hours later (day −2), the cells were passaged at a density of 200,000 cells/ml (100 ul/well in 96well culture plate) in complete expantion media. The cells were plated at 200,000 cells/ml on day 0 and day 3, 400,000 cells/ml on day 5 in phase 1 erythroid differentiation containing StemSpan with 2.5 U/mL of EPO (R&D systems, 287-TC-500), 0.5 mg/mL of Holo-Transferrin (Sigma, T0665-500MG), 1× Glutamine (Gluta-Max) (Gibco, 35050-061), 5 μL/mL Lipid Mixture (Sigma, L0288-100ML), 50 ng/mL SCF (R&D Systems, 255-SV-050), 10 ng/mL IL-3 (R&D Systems, 203-IL010) and 10 ng/mL Insulin (Sigma, I9278-5ML) all 200 μl per well in 96 well culture plate. Cells were then passaged at 500,000 cells/ml and 200 μl per well on day 7 in phase 2 Erythroid differentiation (Phase 1 erythroid differentiation removing IL-3) until collection day (Day10). The culture conditions were used for both control DMSO as well as experimental treatments.
For all cell pasagings, cells were centrifuged at 300 g for 8 minutes at room temperature and cell number were normalized by MANTIS and Integra VIAFLO 384. All the compounds are diluted in DMSO and added to complete media by Formulatrix FAST and mixed starting from day −2. Cells were counted by Luna cell counter with AOPI Staining Solution (Nexcelom Bioscience, CS2-0106-25 mL) on day-2. Cells were counted by BD FACSCelesta Flow Cytometer with CountBright™ Plus Absolute Counting Beads (Thermal Fisher Scientific, C36995) and SYTOX AADvanced™ Ready Flow™ Reagent (Invitrogen, R37173) for other passages. Cells were cultured at 37° C. and 5% CO2. DMSO concentration was kept at 0.1% to minimize any effects to the cells by the vehicle. […] Compound plates were kept at room temperature to protect from light to avoid multiple freeze and thaw cycle.
On the collection day (Day10), 100K cells were collected and stored at −80° C. For direct hybridization for Nanostring, 100K cell pellet was lyzed in 25 μL of RLT (QIAGEN, 79216) with 1×β-Mercaptoethanol (Gibco, 21985-023) and shaked at 300-500 RPM for 5 minutes at room temperature. Cell lysate was stored in −80° C. after lysis.
All hybridizations were done in a total volume of 15 μL (3 μL of RNA lysate added to master mix of 12 μL probe A/B, capture probe/reporter probes, proteinase K and attenuation oligos suspended in hybridization buffer). Samples were hybridized at 67° C. for 22 hr. Following hybridization, the tripartide complexes were purified, immobilized by nCounter Prep Station and imaged by Digital Analyzer (nCounter MAX/FLEX Analysis System), to generate digital counts of barcodes corresponding to each target in the multiplexed reaction. Labeled barcodes obtained from unamplified extracts were counted at 555 images or field of view (FOV). The barcode counts for each sample were recorded in Reporter Code Count (RCC) files that are imported into nSolver analysis software (provided with CodeSet by NS) for quality control evaluation.
The quality control (QC) metric included limit of detection QC by checking for wells with less than 100 total counts for positive controls.
Hybridization signals were normalized against the ERCC positive controls and CodeSet Content (housekeeping gene). Briefly, this involved first calculating a sample-specific scaling factor by calculating arithmetic mean of geomeans of all ERCC positive controls with counts more than zero in all samples. Then this arithmetic mean was divided by the geometric mean of each lane to generate a lane-specific normalization factor. All negative controls and target-specific signal values were then normalized by multiplying counts values with their sample-specific scaling factor. The acceptable range for scaling factors is 0.3-3.0. […]

[2] = test system: Cullin-3 (CUL3) neddylation; assay: AlphaLISA assay for Cullin-3 (CUL3) neddylation in TF 1 cells; format: cell-based; details: 3 hours treatment
Outline: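 TF 1 cells in unsupplemented IMDM treated with compound concentrations for 3 h, then lysed. CUL3 neddylation detected by AlphaLISA (biotinylated anti-NEDD8, anti-CUL3 acceptor beads overnight, streptavidin donor beads 1 h); normalized to vehicle (0%) and 1 μM DI-1548 (100%), IC50 from Hill fits.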

[3] = target: DCN1 (DCUND1) protein PONY domain (Homo sapiens (Human), UniProt Q96GG9); assay: TR-FRET assay, DCN1 binding with FAM-labeled probe
Chain of DCN1 (DCUND1) protein PONY domain (Q96GG9 60-248): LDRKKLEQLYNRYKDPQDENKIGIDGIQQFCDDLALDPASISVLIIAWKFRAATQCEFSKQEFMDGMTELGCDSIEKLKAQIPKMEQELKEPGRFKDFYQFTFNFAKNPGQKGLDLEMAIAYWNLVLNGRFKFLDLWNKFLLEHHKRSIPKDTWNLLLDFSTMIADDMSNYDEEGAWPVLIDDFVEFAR
Outline: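 Biotinylated DCN1 PONY domain, labeled with streptavidin-Tb, was competed against a FAM-labeled non-covalent DCN1 inhibitor probe in buffer with TritonX and 200 mM NaCl. Conditions were 5 nM DCN1 with 20 nM FAM-probe, or 0.31 nM DCN1 with 100 nM FAM-plus 800 nM unlabeled probe. The TR-FRET ratio was read at 1, 5 and 24 h (0.1% DMSO).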

[4] = 24 hr after treatment with compound, read-out: TR FRET IC50 24 hr
[5] = TR FRET IC50 1 hr (nM), 1 hr after treatment with compound
[6] = read-out: TR FRET IC50 1 hr, 1 hr after treatment with compound

Row | SMILES | EC50 ([1]; Homo sapiens, 240 h) | Nanostring Ymax obs (%) [1] | IC50 ([2]; Homo sapiens, TF-1, 3 h) | IC50 [3, 4] | IC50 [3, 5] | IC50 [3, 6] | EC50 [1] | IC50 [2]
1 | CCN1C(=O)[C@@H](NC(=O)c2cccc(C(F)(F)F)c2)[C@@H](c2ccc(F)cc2)c2c(CN(C)C/C=C/C(=O)OC)nn(-c3ccccc3)c21 (racemic) [Compound I-250, rac-methyl I-4-((((4R,5R)-7-ethyl-4-(4-fluorophenyl)-6-oxo-1-phenyl-5-(3-(trifluoromethyl)benzamido)-4,5,6,7-tetrahydro-1H-pyrazolo[3,4-b]pyridine-3-yl)methyl)(methyl)amino)but-2-enoate] | > 1 µM | ++ (Nanostring Ymax greater than 50.0 and less than or equal to 100.0) | ≤ 0.1 µM | ≤ 200 nM | 200 to 1000 nM |  |  | 
2 | C=C(CN1C2COCC1C2)C(=O)NCc1nn(-c2ccccc2)c2c1[C@H](c1ccc(F)cc1)[C@H](NC(=O)c1cccc(C(F)(F)F)c1)C(=O)N2CC (mixture of isomers) [Compound I-573] |  | ++ (Nanostring Ymax greater than 50.0 and less than or equal to 100.0) | ≤ 0.1 µM | ≤ 200 nM |  | ≤ 200 nM |  | 
3 | C=C(C(=O)NCc1nn(-c2ccccc2)c2c1[C@H](c1ccc(F)cc1)[C@H](NC(=O)c1cccc(C(F)(F)F)c1)C(=O)N2CC)C(C)N1CCOCC1 (mixture of isomers) [Compound I-89] |  | ++ (Nanostring Ymax greater than 50.0 and less than or equal to 100.0) | ≤ 0.1 µM | ≤ 200 nM |  | ≤ 200 nM |  | 
4 | CCN1C(=O)[C@H](NC(=O)c2cccc(C(F)(F)F)c2)[C@H](c2ccc(F)cc2)c2c(C(=O)N3C[C@H](F)C[C@@H]3C#N)nn(-c3ccccc3)c21 (mixture of isomers) [Compound I-253, N-((4RS,5RS)-3-((2R,4R)-2-cyano-4-fluoropyrrolidine-1-carbonyl)-7-ethyl-4-(4-fluorophenyl)-6-oxo-1-phenyl-4,5,6,7-tetrahydro-1H-pyrazolo[3,4-b]pyridine-5-yl)-3-(trifluoromethyl)benzamide] | > 1 µM | ++ (Nanostring Ymax greater than 50.0 and less than or equal to 100.0) | ≤ 0.1 µM | ≤ 200 nM | 1000 to 3000 nM |  |  | 
5 | CCN1C(=O)[C@@H](NC(=O)c2cccc(C(F)(F)F)c2)[C@@H](c2ccc(F)cc2)c2c(CN(C#N)CCCO)nn(-c3ccccc3)c21 (racemic) [Compound I-246, N-[rac-(4S,5S)-3-[[cyano(3-hydroxypropyl)amino]methyl]-7-ethyl-4-(4-fluorophenyl)-6-oxo-1-phenyl-4,5-dihydropyrazolo[3,4-b]pyridine-5-yl]-3-(trifluoromethyl)benzamide] | > 1 µM | ++ (Nanostring Ymax greater than 50.0 and less than or equal to 100.0) | 0.1 to 1 µM | 200 to 1000 nM | 200 to 1000 nM |  |  | 
6 | COC(=O)/C=C/CN(C)Cc1nn(-c2ccccc2)c2c1[C@H](c1ccc(F)cc1)[C@H](NC(=O)c1cccc(C(F)(F)F)c1)C(=O)N2CC(C)C [I-266] |  | + (Nanostring Ymax greater than or equal to 0.0 and less than or equal to 50.0) |  | 200 to 1000 nM |  | 200 to 1000 nM | > 1 µM | 0.1 to 1 µM
7 | C=C(CN1CCC1)C(=O)NCc1nn(-c2ccccc2)c2c1[C@H](c1ccc(F)cc1)[C@H](NC(=O)c1cccc(C(F)(F)F)c1)C(=O)N2CC [Compound I-2] |  | ++ (Nanostring Ymax greater than 50.0 and less than or equal to 100.0) | ≤ 0.1 µM | ≤ 200 nM |  | ≤ 200 nM |  | 
8 | C=C(CN1CC2(CCOC2)C1)C(=O)NCc1nn(-c2ccccc2)c2c1[C@H](c1ccc(F)cc1)[C@H](NC(=O)c1cccc(C(F)(F)F)c1)C(=O)N2CC [Compound I-677] |  | +++ (Nanostring Ymax greater than 100.0) | ≤ 0.1 µM | ≤ 200 nM |  | ≤ 200 nM |  | 
9 | C=C(CN1CC2(CCO2)C1)C(=O)NCc1nn(-c2ccccc2)c2c1[C@H](c1ccc(F)cc1)[C@H](NC(=O)c1cccc(C(F)(F)F)c1)C(=O)N2CC [Compound I-407] |  | + (Nanostring Ymax greater than or equal to 0.0 and less than or equal to 50.0) | ≤ 0.1 µM | ≤ 200 nM |  | ≤ 200 nM |  | 
10 | C=C(CN1CC(O)C1)C(=O)NCc1nn(-c2ccccc2)c2c1[C@H](c1ccc(F)cc1)[C@H](NC(=O)c1cccc(C(F)(F)F)c1)C(=O)N2CC [Compound I-459] | ≤ 0.1 µM | ++ (Nanostring Ymax greater than 50.0 and less than or equal to 100.0) | ≤ 0.1 µM | ≤ 200 nM |  | ≤ 200 nM |  | 
11 | C=C(CN1CC(C)(O)C1)C(=O)NCc1nn(-c2ccccc2)c2c1[C@H](c1ccc(F)cc1)[C@H](NC(=O)c1cccc(C(F)(F)F)c1)C(=O)N2CC [Compound I-643] | ≤ 0.1 µM | ++ (Nanostring Ymax greater than 50.0 and less than or equal to 100.0) | ≤ 0.1 µM | ≤ 200 nM |  | ≤ 200 nM |  | 
12 | CCN1C(=O)[C@@H](NC(=O)c2cccc(C(F)(F)F)c2)[C@@H](c2ccc(F)cc2)c2c([C@H](NC#N)C(F)F)nn(-c3ccccc3)c21 [Compound I-411] | 0.1 to 1 µM | ++ (Nanostring Ymax greater than 50.0 and less than or equal to 100.0) | ≤ 0.1 µM | ≤ 200 nM |  | ≤ 200 nM |  | 
13 | CCN1C(=O)[C@@H](NC(=O)c2cccc(C(F)(F)F)c2)[C@@H](c2ccc(F)cc2)c2c(CNC/C=C/C(=O)OC)nn(-c3ccccc3)c21 (racemic) [Compound I-127, rac-methyl I-4-((((4R,5R)-7-ethyl-4-(4-fluorophenyl)-6-oxo-1-phenyl-5-(3-(trifluoromethyl)benzamido)-4,5,6,7-tetrahydro-1H-pyrazolo[3,4-b]pyridine-3-yl)methyl)amino)but-2-enoate] | 0.1 to 1 µM | ++ (Nanostring Ymax greater than 50.0 and less than or equal to 100.0) | ≤ 0.1 µM | ≤ 200 nM | ≤ 200 nM |  |  | 
14 | C=C(CN1CCC12COC2)C(=O)NCc1nn(-c2ccccc2)c2c1[C@H](c1ccc(F)cc1)[C@H](NC(=O)c1cccc(C(F)(F)F)c1)C(=O)N2CC [Compound I-644] | > 1 µM | ++ (Nanostring Ymax greater than 50.0 and less than or equal to 100.0) | ≤ 0.1 µM | ≤ 200 nM |  | ≤ 200 nM |  | 
15 | C=C(CN(C)C1COC1)C(=O)NCc1nn(-c2ccccc2)c2c1[C@H](c1ccc(F)cc1)[C@H](NC(=O)c1cccc(C(F)(F)F)c1)C(=O)N2CC (racemic) [Compound I-102] |  | ++ (Nanostring Ymax greater than 50.0 and less than or equal to 100.0) | ≤ 0.1 µM | ≤ 200 nM |  | ≤ 200 nM |  | 
